In publication PMC6934184, “Selective DNA-PKcs inhibition extends the therapeutic index of localized radiotherapy and chemotherapy” (The Journal of Clinical Investigation, 2019):

Molecular target: T1, PRKCZ (PKC zeta) (Homo sapiens, UniProt Q05513)
T1 construct: purchased Thermo Fisher Scientific (Life Technologies) SelectScreen
Experiment: SelectScreen Z'LYTE
Type: biochemical
How it was run: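 NU5455 was profiled across the SelectScreen Broad panel of kinase activity and binding assays. Z'LYTE reactions such as CSF1R ran at apparent Km ATP, while the Adapta CAMK1 assay used ATP listed as 10. Values are given as percent.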

T1 sequence (Q05513 whole entry): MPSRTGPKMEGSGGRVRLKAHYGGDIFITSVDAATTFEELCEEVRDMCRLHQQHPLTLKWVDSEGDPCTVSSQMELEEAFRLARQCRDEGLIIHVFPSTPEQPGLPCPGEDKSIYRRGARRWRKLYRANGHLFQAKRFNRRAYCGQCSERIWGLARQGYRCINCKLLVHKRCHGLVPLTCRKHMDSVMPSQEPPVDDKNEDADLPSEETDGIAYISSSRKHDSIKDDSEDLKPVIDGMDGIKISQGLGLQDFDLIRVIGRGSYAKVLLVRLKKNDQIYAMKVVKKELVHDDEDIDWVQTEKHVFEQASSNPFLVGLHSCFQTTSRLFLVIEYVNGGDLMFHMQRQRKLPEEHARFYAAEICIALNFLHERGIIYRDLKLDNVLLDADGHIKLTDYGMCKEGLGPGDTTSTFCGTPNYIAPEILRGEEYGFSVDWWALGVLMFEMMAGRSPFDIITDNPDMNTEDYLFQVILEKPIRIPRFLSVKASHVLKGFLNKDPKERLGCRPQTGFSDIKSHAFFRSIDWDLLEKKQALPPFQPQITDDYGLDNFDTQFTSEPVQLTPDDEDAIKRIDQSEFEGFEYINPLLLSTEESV

## CN(C(=O)CN1CCOCC1)c1ccc2sc3c(-c4cccc5c(=O)cc(N6CC7CCC(C6)O7)oc45)cccc3c2c1 [NU5455]
  inhibition at 1 µM: 4.7%
